Several values for one entry are separate records, joined by “and”; a condition that tells them apart may be missing. Equal entries are not always repeated.
Tests used:
[1] = Partition and distribution co-efficients (logP and logD), shake-flask method; assay type: physicochemical
Description: The lipophilicity of [^125I]WYE-230949 was determined in octanol/water and at physiological pH using a modification of the shake-flask method. […] The radioactivity incorporated in both phases was determined using a gamma counter (Cobra Gamma Counter, Packard, Perkin Elmer Life and Analytical Sciences, Boston, MA, USA). The assay was performed in triplicate on 3 separate occasions. LogP was calculated to be log [counts in octanol/counts in water] and logD was calculated to be log [counts in octanol/counts in pH 7.4 buffer].

[2] = target: T1, rat histamine H3 receptor (Rattus norvegicus, UniProt Q9QYN8); experiment: In vitro saturation radioligand binding to rat brain homogenates
T1 construct: from tissue; host or cells: whole brain of male Sprague-Dawley rats, homogenate pellet
Description: Animals (male Sprague-Dawley rats; Harlan, UK) were killed by cervical dislocation. Whole brains were immediately excised and placed into ice-cold Tris-HCl buffer (Tris […], pH 7.4; EDTA 5 mM), homogenised and centrifuged at approx 40,000 g for 10 min at 4°C (Beckman J2-21M/E). The pellet was resuspended in 25 ml of buffer and centrifuged as previously, then the final pellet was resuspended in 10 ml of ice cold Tris buffer and stored at −50°C until required. Protein content was analysed using Bio-Rad reagent; absorbance was read on a spectrophotometer at 562 nm. [^125I]WYE230949 binding assays were carried out in a final incubation volume of 500 µl containing Tris-HCl buffer (Tris […], pH 7.4; EDTA 5 mM), brain homogenates (1.47 to 2.27 mg/ml of protein) and [^125I]WYE230949 (0.04–102 nM). Non-specific binding was defined in the presence of 10 µM iodophenpropit. Samples were incubated at 30°C for 30 min, then filtered rapidly through Whatman GF/B filters (pre-treated with 0.3% polyethylenimine; Aldrich, UK) using a Brandel M24R cell harvester and the filters washed with 3×4 ml ice-cold Tris buffer. Radioactivity on the filters was determined by liquid scintillation counting a minimum of 48 h after filtration. All assays were performed in triplicate. Specific binding was determined by subtracting non-specific binding from total binding at each concentration; Kd and Bmax values derived using GraphPad Prism (version 4.03), and expressed as mean ±SEM of the triplicate assays.

histamine H3 receptor = target: T2, histamine H3 receptor (Rattus norvegicus, UniProt Q9QYN8); experiment: Ex vivo autoradiography (target to cerebellum ratios); assay type: in vivo
T2 construct: Sections (20 µm) cut from a frozen rat brain were pre-incubated in Tris-HCl buffer; from tissue
Description: Animal experiments were conducted under the UK Animals (Scientific Procedures) Act 1986. This work was approved by the ethical review committee at the University of Glasgow (PPL: 60/3436) prior to the start of study. Naïve male Sprague-Dawley rats (Harlan, UK), weighing 217 to 352 g were either conscious or anaesthetised (2.5–3% isoflurane via a tracheostomy and artificial ventilation in 70/30% N2O/O2) for the duration of the experiment. Anaesthetised rats had their respiration and temperature monitored throughout. [^125I]WYE-230949 was administered via a femoral vein cannula to anaesthetised rats or via the lateral tail vein to conscious rats. The injected dose for each rat was calculated by measuring the syringe in a dose calibrator before and after [^125I]WYE-230949 administration. The radioactive and radiochemical amounts administered to individual rats ranged from 12.6 to 24.5 MBq and 0.32 to 0.70 µg/kg respectively in all in vivo studies.
Regional brain uptake was determined by ex vivo autoradiography, studies were performed in both conscious and anaesthetised rats in order to investigate the effect of anaesthesia on [^125I]WYE-230949 uptake. At either 30 or 120 min following [^125I]WYE-230949 administration rats were killed by cervical dislocation. The brains were removed, frozen in isopentane at −42°C and stored at −20°C before sectioning (20 µm) in a cryostat (Bright Instrument Company Ltd). Three sections were taken every 400 µm for the entire length of the rat brain and thaw mounted onto poly-L-lysine coated slides. Sections were dried at room temperature and apposed to X-ray film (Kodak Biomax MR-1) for approximately 2 weeks. The resultant autoradiograms were analysed using computer-based densitometry (MCID, Imaging Research, Canada). Relative optical density (ROD) measurements were obtained from 14 ROIs defined with reference to a rat brain atlas. For each brain region examined, bilateral readings were obtained in triplicate and the average reading determined. ROD values in the cerebellum were used as a measure of non-specific binding. Specific binding was calculated as ROD in ROI/ROD in cerebellum.

T2 sequence (Q9QYN8 whole entry): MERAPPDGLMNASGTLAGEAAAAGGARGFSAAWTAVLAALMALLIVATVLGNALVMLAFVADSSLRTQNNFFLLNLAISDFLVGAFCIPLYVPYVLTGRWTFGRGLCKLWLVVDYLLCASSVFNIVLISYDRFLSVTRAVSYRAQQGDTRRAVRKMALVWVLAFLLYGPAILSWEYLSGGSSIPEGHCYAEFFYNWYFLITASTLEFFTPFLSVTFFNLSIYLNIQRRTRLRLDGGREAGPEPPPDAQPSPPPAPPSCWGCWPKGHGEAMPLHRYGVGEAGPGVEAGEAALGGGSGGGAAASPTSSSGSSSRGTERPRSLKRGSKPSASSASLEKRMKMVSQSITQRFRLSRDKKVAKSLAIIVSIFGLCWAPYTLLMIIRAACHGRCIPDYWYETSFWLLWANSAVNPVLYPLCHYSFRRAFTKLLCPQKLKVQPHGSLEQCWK
T1 sequence (Q9QYN8 whole entry): as above

Structure (SMILES): O=C(c1ccc(Cn2cnc3cccc([125I])c32)cc1)N1CC[C@H](N2CCCC2)C1 [[^125I]WYE-230949]
- logD7.4 ([1]; octanol/phosphate buffer pH 7.4, n = 3): 1.64±0.04
- logP ([1]; octanol/water, n = 3): 1.59±0.04
- Non-specific binding as % of total binding ([2]; at 6.6±0.1 nM, defined with 10 µM iodophenpropit, n = 3): 39±3%
- Bmax ([2]; whole rat brain homogenates, one-site binding model, n = 8): 508.6±34.9 fmol/mg protein and 509 fmol/mg protein
- Target to cerebellum ratio (histamine H3 receptor; Amygdala, 30 min, anaesthetised): 1.10±0.02
- Target to cerebellum ratio (histamine H3 receptor; Amygdala, 30 min, conscious): 1.12±0.04
- Target to cerebellum ratio (histamine H3 receptor; Amygdala, 120 min, anaesthetised): 1.16±0.03
- Target to cerebellum ratio (histamine H3 receptor; Amygdala, 120 min, conscious): 1.26±0.03
- Target to cerebellum ratio (histamine H3 receptor; Anterior Cortex, 30 min, anaesthetised): 1.09±0.03
- Target to cerebellum ratio (histamine H3 receptor; Anterior Cortex, 30 min, conscious): 1.15 ± 0.02
- Target to cerebellum ratio (histamine H3 receptor; Anterior Cortex, 120 min, anaesthetised): 1.10±0.02
- Target to cerebellum ratio (histamine H3 receptor; Anterior Cortex, 120 min, conscious): 1.16±0.02
- Target to cerebellum ratio (histamine H3 receptor; Caudate Putamen, 30 min, anaesthetised): 1.13±0.03
- Target to cerebellum ratio (histamine H3 receptor; Caudate Putamen, 30 min, conscious): 1.17±0.03
- Target to cerebellum ratio (histamine H3 receptor; Caudate Putamen, 120 min, anaesthetised): 1.20±0.04
- Target to cerebellum ratio (histamine H3 receptor; Caudate Putamen, 120 min, conscious): 1.32±0.04
- Target to cerebellum ratio (histamine H3 receptor; Choroid Plexus, 30 min, anaesthetised): 1.73±0.06
- Target to cerebellum ratio (histamine H3 receptor; Choroid Plexus, 30 min, conscious): 2.68±0.04
- Target to cerebellum ratio (histamine H3 receptor; Choroid Plexus, 120 min, anaesthetised): 1.79±0.10
- Target to cerebellum ratio (histamine H3 receptor; Choroid Plexus, 120 min, conscious): 2.66±0.11
- Target to cerebellum ratio (histamine H3 receptor; Hippocampus, 30 min, anaesthetised): 1.08±0.03
- Target to cerebellum ratio (histamine H3 receptor; Hippocampus, 30 min, conscious): 1.06±0.02
- Target to cerebellum ratio (histamine H3 receptor; Hippocampus, 120 min, anaesthetised): 1.08±0.01
- Target to cerebellum ratio (histamine H3 receptor; Hippocampus, 120 min, conscious): 1.10±0.02
- Target to cerebellum ratio (histamine H3 receptor; Hypothalamus, 30 min, anaesthetised): 1.16±0.03
- Target to cerebellum ratio (histamine H3 receptor; Hypothalamus, 30 min, conscious): 1.13±0.03
- Target to cerebellum ratio (histamine H3 receptor; Hypothalamus, 120 min, anaesthetised): 1.18±0.03
- Target to cerebellum ratio (histamine H3 receptor; Hypothalamus, 120 min, conscious): 1.18±0.02
- Target to cerebellum ratio (histamine H3 receptor; Medial Cortex, 30 min, anaesthetised): 1.10±0.03
- Target to cerebellum ratio (histamine H3 receptor; Medial Cortex, 30 min, conscious): 1.22±0.03
- Target to cerebellum ratio (histamine H3 receptor; Medial Cortex, 120 min, anaesthetised): 1.12±0.02
- Target to cerebellum ratio (histamine H3 receptor; Medial Cortex, 120 min, conscious): 1.21±0.02
- Target to cerebellum ratio (histamine H3 receptor; Nucleus Accumbens (Core), 30 min, anaesthetised): 1.12±0.03
- Target to cerebellum ratio (histamine H3 receptor; Nucleus Accumbens (Core), 30 min, conscious): 1.15±0.03
- Target to cerebellum ratio (histamine H3 receptor; Nucleus Accumbens (Core), 120 min, anaesthetised): 1.24±0.04
- Target to cerebellum ratio (histamine H3 receptor; Nucleus Accumbens (Core), 120 min, conscious): 1.36±0.03
- Target to cerebellum ratio (histamine H3 receptor; Nucleus Accumbens (Shell), 30 min, anaesthetised): 1.12±0.02
- Target to cerebellum ratio (histamine H3 receptor; Nucleus Accumbens (Shell), 30 min, conscious): 1.17±0.06
- Target to cerebellum ratio (histamine H3 receptor; Nucleus Accumbens (Shell), 120 min, anaesthetised): 1.24±0.04
- Target to cerebellum ratio (histamine H3 receptor; Nucleus Accumbens (Shell), 120 min, conscious): 1.33±0.05
- Target to cerebellum ratio (histamine H3 receptor; Posterior Cortex, 30 min, anaesthetised): 1.08±0.03
- Target to cerebellum ratio (histamine H3 receptor; Posterior Cortex, 30 min, conscious): 1.18±0.03
- Target to cerebellum ratio (histamine H3 receptor; Posterior Cortex, 120 min, anaesthetised): 1.13±0.03
- Target to cerebellum ratio (histamine H3 receptor; Posterior Cortex, 120 min, conscious): 1.26±0.02
- Target to cerebellum ratio (histamine H3 receptor; Substantia Nigra, 30 min, anaesthetised): 1.19±0.03
- Target to cerebellum ratio (histamine H3 receptor; Substantia Nigra, 30 min, conscious): 1.10±0.02
- Target to cerebellum ratio (histamine H3 receptor; Substantia Nigra, 120 min, anaesthetised): 1.26±0.04
- Target to cerebellum ratio (histamine H3 receptor; Substantia Nigra, 120 min, conscious): 1.26±0.03
- Target to cerebellum ratio (histamine H3 receptor; Thalamus, 30 min, anaesthetised): 1.10±0.03
- Target to cerebellum ratio (histamine H3 receptor; Thalamus, 30 min, conscious): 1.11±0.02
- Target to cerebellum ratio (histamine H3 receptor; Thalamus, 120 min, anaesthetised): 1.09±0.02
- Target to cerebellum ratio (histamine H3 receptor; Thalamus, 120 min, conscious): 1.08±0.02
- ratio of specific to non-specific binding (histamine H3 receptor; all brain ROIs, conscious and anaesthetised rats): less than 1.4

Reference: PMC4277420, “Assessment of [^125I]WYE-230949 as a Novel Histamine H3 Receptor Radiopharmaceutical” (PLoS ONE, 2014)
